Source: patent US20210070748A1, “INHIBITORS OF BRUTONS TYROSINE KINASE” (Pharmacyclics LLC, priority 2015, published 2021)

Key:
Type in all cases: biochemical
JAK3 = molecular target: T1, JAK3 (Homo sapiens, UniProt P52333); test: Inhibition of a panel of kinases, in vitro HotSpot kinase assay: JAK3; settings: D-compounds panel data; 1 μM ATP; read-out: IC50 JAK3
T1 sequence (P52333 1-1124): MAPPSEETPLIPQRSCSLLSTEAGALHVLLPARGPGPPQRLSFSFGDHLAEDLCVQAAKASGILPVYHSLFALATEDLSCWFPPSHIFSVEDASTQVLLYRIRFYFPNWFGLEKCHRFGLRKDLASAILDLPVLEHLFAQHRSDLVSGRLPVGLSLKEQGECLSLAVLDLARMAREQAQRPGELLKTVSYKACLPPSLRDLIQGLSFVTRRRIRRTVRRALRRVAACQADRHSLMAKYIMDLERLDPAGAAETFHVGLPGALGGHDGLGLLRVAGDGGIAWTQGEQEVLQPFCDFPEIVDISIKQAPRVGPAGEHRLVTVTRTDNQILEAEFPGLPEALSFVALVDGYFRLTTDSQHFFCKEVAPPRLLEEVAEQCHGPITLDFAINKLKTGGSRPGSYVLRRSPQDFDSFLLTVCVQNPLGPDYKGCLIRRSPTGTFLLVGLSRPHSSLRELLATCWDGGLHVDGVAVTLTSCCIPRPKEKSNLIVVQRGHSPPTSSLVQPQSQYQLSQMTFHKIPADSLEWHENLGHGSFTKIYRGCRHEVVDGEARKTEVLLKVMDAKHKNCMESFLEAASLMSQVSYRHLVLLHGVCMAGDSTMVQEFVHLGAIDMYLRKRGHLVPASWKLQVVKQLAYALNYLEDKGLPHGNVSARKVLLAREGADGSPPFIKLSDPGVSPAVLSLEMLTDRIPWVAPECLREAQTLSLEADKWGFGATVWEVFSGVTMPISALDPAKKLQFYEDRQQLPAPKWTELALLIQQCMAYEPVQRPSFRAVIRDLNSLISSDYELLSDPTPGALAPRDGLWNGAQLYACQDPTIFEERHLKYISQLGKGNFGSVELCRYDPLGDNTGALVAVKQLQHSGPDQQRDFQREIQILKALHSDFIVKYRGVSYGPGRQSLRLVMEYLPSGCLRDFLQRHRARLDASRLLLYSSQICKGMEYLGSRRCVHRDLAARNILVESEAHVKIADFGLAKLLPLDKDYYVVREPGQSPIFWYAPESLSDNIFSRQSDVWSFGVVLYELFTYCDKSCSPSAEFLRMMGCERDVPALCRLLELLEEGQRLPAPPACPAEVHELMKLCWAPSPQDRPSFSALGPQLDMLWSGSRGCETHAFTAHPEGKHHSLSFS

LCK = LCK (Homo sapiens, UniProt P06239); test: Inhibition of a panel of kinases, in vitro HotSpot kinase assay: LCK; settings: D-compounds panel data; 1 μM ATP; read-out: IC50 LCK
Sequence of LCK (P06239 whole entry): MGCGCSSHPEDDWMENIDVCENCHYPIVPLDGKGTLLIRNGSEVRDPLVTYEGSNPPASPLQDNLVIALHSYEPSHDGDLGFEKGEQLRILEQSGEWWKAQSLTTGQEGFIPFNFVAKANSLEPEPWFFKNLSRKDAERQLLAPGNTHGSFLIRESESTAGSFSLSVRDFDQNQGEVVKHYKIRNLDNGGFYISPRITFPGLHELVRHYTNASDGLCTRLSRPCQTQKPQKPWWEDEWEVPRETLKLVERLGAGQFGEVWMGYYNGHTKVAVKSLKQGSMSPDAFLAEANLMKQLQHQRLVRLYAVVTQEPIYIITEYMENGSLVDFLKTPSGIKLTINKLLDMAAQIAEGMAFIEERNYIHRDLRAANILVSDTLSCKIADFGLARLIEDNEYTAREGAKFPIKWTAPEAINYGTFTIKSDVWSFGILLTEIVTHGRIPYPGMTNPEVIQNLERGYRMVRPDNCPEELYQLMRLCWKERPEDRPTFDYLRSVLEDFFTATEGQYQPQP

ITK = molecular target: T2, ITK (Homo sapiens, UniProt Q08881); test: Inhibition of a panel of kinases, in vitro HotSpot kinase assay: ITK; settings: D-compounds panel data; 1 μM ATP
T2 sequence (Q08881 1-620): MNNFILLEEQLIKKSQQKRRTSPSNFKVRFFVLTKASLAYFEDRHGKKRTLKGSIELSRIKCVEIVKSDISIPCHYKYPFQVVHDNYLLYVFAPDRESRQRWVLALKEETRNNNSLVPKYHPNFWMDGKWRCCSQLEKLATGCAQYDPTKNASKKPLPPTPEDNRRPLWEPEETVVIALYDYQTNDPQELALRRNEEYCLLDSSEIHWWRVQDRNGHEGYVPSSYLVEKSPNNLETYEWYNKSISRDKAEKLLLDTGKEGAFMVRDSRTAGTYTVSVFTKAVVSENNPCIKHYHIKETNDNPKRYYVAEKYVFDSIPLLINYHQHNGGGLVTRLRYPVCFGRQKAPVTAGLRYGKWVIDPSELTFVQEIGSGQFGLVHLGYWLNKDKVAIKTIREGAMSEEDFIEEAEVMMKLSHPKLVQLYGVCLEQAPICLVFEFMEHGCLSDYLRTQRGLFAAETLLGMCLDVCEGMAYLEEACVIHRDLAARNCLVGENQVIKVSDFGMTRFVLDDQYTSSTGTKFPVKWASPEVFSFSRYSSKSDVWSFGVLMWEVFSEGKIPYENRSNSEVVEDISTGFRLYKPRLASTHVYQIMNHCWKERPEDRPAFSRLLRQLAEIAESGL
Description: (§1) The degree of inhibition of a panel of kinases is determined using the in vitro HotSpot kinase assay (purified enzymes, ^33P-ATP, an appropriate substrate and 1 μM ATP).

EGFR = EGFR (Homo sapiens, UniProt P00533); test: Inhibition of a panel of kinases, in vitro HotSpot kinase assay: EGFR; settings: D-compounds panel data; 1 μM ATP
Sequence of EGFR (P00533 25-1210): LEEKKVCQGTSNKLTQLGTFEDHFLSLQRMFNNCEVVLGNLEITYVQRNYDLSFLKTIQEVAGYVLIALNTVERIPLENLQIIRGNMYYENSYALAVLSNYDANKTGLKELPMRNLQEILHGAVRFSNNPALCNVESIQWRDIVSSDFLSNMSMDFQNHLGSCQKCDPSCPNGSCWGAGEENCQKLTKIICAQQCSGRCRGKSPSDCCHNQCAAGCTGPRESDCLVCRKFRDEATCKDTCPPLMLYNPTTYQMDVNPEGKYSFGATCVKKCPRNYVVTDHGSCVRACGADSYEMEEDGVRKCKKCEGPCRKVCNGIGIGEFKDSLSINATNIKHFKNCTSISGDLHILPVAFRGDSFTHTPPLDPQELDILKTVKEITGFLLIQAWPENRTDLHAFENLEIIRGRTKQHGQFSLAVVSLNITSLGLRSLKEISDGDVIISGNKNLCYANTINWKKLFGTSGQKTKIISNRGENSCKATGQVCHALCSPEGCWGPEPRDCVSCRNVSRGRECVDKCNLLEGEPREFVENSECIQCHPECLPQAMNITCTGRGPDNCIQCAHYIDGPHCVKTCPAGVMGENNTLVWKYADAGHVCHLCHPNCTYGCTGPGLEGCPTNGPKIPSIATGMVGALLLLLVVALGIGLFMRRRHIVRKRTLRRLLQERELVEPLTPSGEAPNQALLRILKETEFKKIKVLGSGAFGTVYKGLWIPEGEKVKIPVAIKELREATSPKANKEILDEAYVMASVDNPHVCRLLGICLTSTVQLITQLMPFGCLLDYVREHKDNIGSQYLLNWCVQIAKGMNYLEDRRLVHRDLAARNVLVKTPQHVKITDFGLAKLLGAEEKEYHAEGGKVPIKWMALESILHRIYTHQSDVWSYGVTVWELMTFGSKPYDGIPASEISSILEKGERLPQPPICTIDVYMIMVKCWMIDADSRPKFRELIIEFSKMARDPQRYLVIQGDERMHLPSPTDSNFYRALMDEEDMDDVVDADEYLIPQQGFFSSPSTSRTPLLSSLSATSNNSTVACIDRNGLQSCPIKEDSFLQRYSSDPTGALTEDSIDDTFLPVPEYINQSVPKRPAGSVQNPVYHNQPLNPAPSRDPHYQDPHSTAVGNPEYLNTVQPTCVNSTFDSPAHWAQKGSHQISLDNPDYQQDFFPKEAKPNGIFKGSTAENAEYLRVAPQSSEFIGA
Description: as §1

TEC = molecular target: T3, TEC (Homo sapiens, UniProt P42680); test: Inhibition of a panel of kinases, in vitro HotSpot kinase assay: TEC; settings: D-compounds panel data; 1 μM ATP
T3 sequence (P42680 1-631): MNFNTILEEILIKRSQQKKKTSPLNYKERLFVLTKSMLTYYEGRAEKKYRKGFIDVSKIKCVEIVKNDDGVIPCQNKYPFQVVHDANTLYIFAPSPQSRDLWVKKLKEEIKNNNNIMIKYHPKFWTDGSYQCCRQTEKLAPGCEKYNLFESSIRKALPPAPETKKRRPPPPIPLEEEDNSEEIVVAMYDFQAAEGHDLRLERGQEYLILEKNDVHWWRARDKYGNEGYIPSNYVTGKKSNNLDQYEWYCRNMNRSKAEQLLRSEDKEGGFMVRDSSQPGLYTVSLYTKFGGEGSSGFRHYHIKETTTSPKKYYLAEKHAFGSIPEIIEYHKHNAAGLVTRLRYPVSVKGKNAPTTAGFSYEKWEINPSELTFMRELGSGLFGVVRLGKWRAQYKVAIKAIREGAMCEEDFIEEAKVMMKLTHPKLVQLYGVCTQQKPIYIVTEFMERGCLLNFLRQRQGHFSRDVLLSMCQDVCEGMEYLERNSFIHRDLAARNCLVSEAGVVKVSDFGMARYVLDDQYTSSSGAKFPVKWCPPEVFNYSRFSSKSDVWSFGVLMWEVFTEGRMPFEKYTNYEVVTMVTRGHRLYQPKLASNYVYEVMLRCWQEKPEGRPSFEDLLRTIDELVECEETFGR
Description: as §1

SMILES | IC50 (JAK3) | IC50 (LCK) | IC50 (ITK) | IC50 (EGFR) | IC50 (TEC)
C[C@@H]1[C@H](NC(=O)c2ccc(C3(C)COC3)cc2)CCCN1c1cnc(C(N)=O)c(Nc2cnn(C)c2)n1 [Example D-228, 3-[(1-methyl-1H-pyrazol-4-yl)amino]-5-[(2R,3R)-2-methyl-3-[4-(3-methyloxetan-3-yl)benzamido]piperidin-1-yl]pyrazine-2-carboxamide] | 1000 to 10000 nM | 100 to 1000 nM | 100 to 1000 nM | 1000 to 10000 nM | ≤ 10 nM
CCN(CC)c1ccc(C(=O)N[C@@H]2CCCN(c3cnc(C(N)=O)c(Nc4cnn(C)c4)n3)[C@@H]2C)cc1 [Example D-218, 5-[(2R,3R)-3-[4-(diethylamino)benzamido]-2-methylpiperidin-1-yl]-3-[(1-methyl-1H-pyrazol-4-yl)amino]pyrazine-2-carboxamide] | 1000 to 10000 nM | 100 to 1000 nM | 100 to 1000 nM | 1000 to 10000 nM | ≤ 10 nM
C[C@@H]1[C@H](NC(=O)c2ccc(S(F)(F)(F)(F)F)cc2)CCCN1c1cnc(C(N)=O)c(Nc2cnn(C)c2)n1 [Example D-230, 3-[(1-methyl-1H-pyrazol-4-yl)amino]-5-[(2R,3R)-2-methyl-3-[4-(pentafluoro-λ^6-sulfanyl)benzamido]piperidin-1-yl]pyrazine-2-carboxamide] | > 10000 nM | 100 to 1000 nM | 1000 to 10000 nM | 1000 to 10000 nM | 10 to 100 nM
C[C@@H]1[C@H](NC(=O)c2ccc(SC(F)(F)F)cc2)CCCN1c1cnc(C(N)=O)c(Nc2ccc(N3CCN(C)CC3)cc2)n1 [Example D-233, 5-[(2R,3R)-2-methyl-3-{4-[(trifluoromethyl)sulfanyl]benzamido}piperidin-1-yl]-3-{[4-(4-methylpiperazin-1-yl)phenyl]amino}pyrazine-2-carboxamide] | 1000 to 10000 nM | 100 to 1000 nM | 100 to 1000 nM | 100 to 1000 nM | 10 to 100 nM
Cn1cc(Nc2nc(N3C[C@@H](NC(=O)c4ccc(C5CC5)cc4)CC(F)(F)C3)cnc2C(N)=O)cn1 [Example D-189, 5-[(5S)-5-(4-cyclopropylbenzamido)-3,3-difluoropiperidin-1-yl]-3-[(1-methyl-1H-pyrazol-4-yl)amino]pyrazine-2-carboxamide] | 1000 to 10000 nM | > 10000 nM | > 10000 nM | 1000 to 10000 nM | 1000 to 10000 nM
C[C@@H]1[C@H](NC(=O)c2ccc(N(C)CCO)cc2)CCCN1c1cnc(C(N)=O)c(Nc2cnn(C)c2)n1 [Example D-217, 5-[(2R,3R)-3-{4-[(2-hydroxyethyl)(methyl)amino]benzamido}-2-methylpiperidin-1-yl]-3-[(1-methyl-1H-pyrazol-4-yl)amino]pyrazine-2-carboxamide] | 100 to 1000 nM | 100 to 1000 nM | 100 to 1000 nM | 1000 to 10000 nM | ≤ 10 nM
C[C@@H]1[C@H](NC(=O)c2ccc(C3CC3)cc2Cl)CCCN1c1cnc(C(N)=O)c(Nc2ccc(N3CCN(C)CC3)cc2)n1 [Example D-16, 5-[(2R,3R)-3-(2-chloro-4-cyclopropylbenzamido)-2-methylpiperidin-1-yl]-3-{[4-(4-methylpiperazin-1-yl)phenyl]amino}pyrazine-2-carboxamide] | 1000 to 10000 nM | 10 to 100 nM | 100 to 1000 nM | 100 to 1000 nM | 10 to 100 nM
Cn1cc(Nc2nc(N3CCC(F)(F)[C@@H](NC(=O)c4ccc(C5CC5)cc4)C3)cnc2C(N)=O)cn1 [Example D-193, 5-[(3S)-3-(4-cyclopropylbenzamido)-4,4-difluoropiperidin-1-yl]-3-[(1-methylpyrazol-4-yl)amino]pyrazine-2-carboxamide] | 1000 to 10000 nM | > 10000 nM | > 10000 nM | > 10000 nM | 100 to 1000 nM
C[C@@H]1[C@H](NC(=O)c2ccc(C3CC3)cc2)CCCN1c1cnc(C(N)=O)c(Nc2cnn(CC(C)(C)O)c2)n1 [Example D-215, 5-[(2R,3R)-3-(4-cyclopropylbenzamido)-2-methylpiperidin-1-yl]-3-{[1-(2-hydroxy-2-methylpropyl)-1H-pyrazol-4-yl]amino}pyrazine-2-carboxamide] | > 10000 nM | 1000 to 10000 nM | 1000 to 10000 nM | > 10000 nM | 100 to 1000 nM
C[C@@H]1[C@H](NC(=O)c2ccc(C(C)(C)O)cc2)CCCN1c1cnc(C(N)=O)c(Nc2cnn(C)c2)n1 [Example D-194, 5-[(2R,3R)-3-[4-(2-hydroxypropan-2-yl)benzamido]-2-methylpiperidin-1-yl]-3-[(1-methyl-1H-pyrazol-4-yl)amino]pyrazine-2-carboxamide] | 1000 to 10000 nM | 100 to 1000 nM | 100 to 1000 nM | 1000 to 10000 nM | ≤ 10 nM
Cc1nc2cc(C(=O)N[C@@H]3CCCN(c4cnc(C(N)=O)c(Nc5cnn(C)c5)n4)[C@@H]3C)ccc2s1 [Example D-242, N-[(2R,3R)-1-{5-carbamoyl-6-[(1-methyl-1H-pyrazol-4-yl)amino]pyrazin-2-yl}-2-methylpiperidin-3-yl]-2-methyl-1,3-benzothiazole-5-carboxamide] | 100 to 1000 nM | 100 to 1000 nM | 100 to 1000 nM | 1000 to 10000 nM | ≤ 10 nM
Cc1cc(Nc2nc(N3CCC[C@H](c4ncc(-c5ccccc5)[nH]4)C3)cnc2C(N)=O)sn1 [Example D-172, 3-[(3-methyl-1,2-thiazol-5-yl)amino]-5-[(3S)-3-(5-phenyl-1H-imidazol-2-yl)piperidin-1-yl]pyrazine-2-carboxamide] | 100 to 1000 nM | 100 to 1000 nM | > 10000 nM | 10 to 100 nM | 100 to 1000 nM
C[C@@H]1[C@H](NC(=O)c2ccc(C(C)(C)C)s2)CCCN1c1cnc(C(N)=O)c(Nc2cnn(C)c2)n1 [Example D-229, 5-[(2R,3R)-3-(5-tert-butylthiophene-2-amido)-2-methylpiperidin-1-yl]-3-[(1-methyl-1H-pyrazol-4-yl)amino]pyrazine-2-carboxamide] | > 10000 nM | 10 to 100 nM | 1000 to 10000 nM | 1000 to 10000 nM | 10 to 100 nM
